Experiments:
[1] = Guest molecule concentration after incubation in initial medium without polymer (Comparative Example 1); assay type: physicochemical; conditions: 37° C.
Outline: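 Dissolved guest content measured by HPLC of centrifuged supernatants (37° C., 13000 rpm, 5 min) sampled at 0.5 h, 3 h and 6 h. Incubation was polymer-free at 37° C.±0.5° C. in buffers of pH 2.0-7.4; nominal loading was set by maximum clinical dose.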

[2] = Binary supramolecular self-assembly systems of polymer and target: guest concentration over incubation time (Comparative Example 2); assay type: physicochemical; conditions: for Concentration of guest molecule in solution / Times that of the initial medium: 6 h
Protocol: Experiments were conducted according to the steps in Comparative Example 1, and quantitative analysis was carried out using the analytical method for each target to investigate the regulation ability […] stacking.

[3] = Binary (carrier), ternary and quaternary supramolecular self-assembly systems of polymer, carrier building block and target: guest concentration over incubation time (Examples 1-56); assay type: physicochemical
Protocol: pH 2.0 hydrochloric acid, pH 4.5 acetate, and pH 6.5, pH 6.8, or pH 7.4 phosphate buffer solutions were prepared. The selection of each initial medium followed the principle that the solubility in the initial medium of the selected targets (or active ingredients) should low enough, but should meet the detection sensitivity and accuracy requirements of the corresponding analytical methods. Each buffer as initial media was placed in a 50 ml test tube with a stopper, shaken in a constant temperature air shaker at 37° C.±0.5° C., with an amplitude of 200 rpm, and incubated for 1 hour. […] Samples were taken at 0.5 h, 3 h and 6 h after incubation, centrifuged at 37° C., 13000 rpm for 5 minutes, and the supernatant was diluted at least 10 times with the mobile phase under the target analyte analytical method, filtered, the initial filtrate was discarded, and the continued filtrate was used as the test solution for injection analysis. The corresponding HPLC method under each target object item in Table 8 was used to determine the content of each target substance. When the solubility of the target in the initial medium is below the quantitative limit of the analytical method, a small amount of surfactant, such as sodium dodecyl sulfate (SDS), Tween20, or Tween80, can be added appropriately.
Experiments were conducted according to the steps in Comparative Example 1, and quantitative analysis was carried out using the analytical method for each target to investigate the regulation ability of each binary supramolecular self-assembly system built from 0.5% polymer and target on guest molecules stacking.
Ternary supramolecular self-assembly systems based on different polymers, carrier building blocks, and targets were built according to the experimental scheme in Table 12, to investigate the influence of synergistic regulation of the carrier building blocks and the polymers on the stacking of target molecules, as well as the stability of the supramolecular self-assembly systems jointly built by them over incubation time. The initial medium, quantitative analysis method, pre-treatment method, and initial theoretical concentration of the target, corresponding to each target molecule in the experiment, were consistent with those in Comparative Examples 1 and 2. After a target was added to the system, the target was uniformly dispersed by ultrasonication at 37° C. for half an hour and then shaken in a 37° C. constant temperature air shaker, and samples were collected after different incubation time, i.e. 0.5 h, 1 h, 2 h, 3 h, 4 h, and 6 h.

[4] = cited from earlier work
[5] = binary, no polymer: 0.5% 301, 6 h
[6] = binary: 310, % not stated at the place, 6 h
[7] = binary: 312, % not stated at the place, 6 h
[8] = binary system with 0.5% polymer 101, incubation 0.5 h
[9] = binary system with 0.5% polymer 101, incubation 3 h
[10] = binary system with 0.5% polymer 101, incubation 6 h
[11] = binary system with 0.5% polymer 102, incubation 0.5 h
[12] = binary system with 0.5% polymer 102, incubation 3 h
[13] = binary system with 0.5% polymer 102, incubation 6 h
[14] = binary system with 0.5% polymer 103, incubation 0.5 h
[15] = binary system with 0.5% polymer 103, incubation 3 h
[16] = binary system with 0.5% polymer 103, incubation 6 h
[17] = binary system with 0.5% polymer 106, incubation 0.5 h
[18] = binary system with 0.5% polymer 106, incubation 3 h
[19] = binary system with 0.5% polymer 106, incubation 6 h
[20] = binary system with 0.5% polymer 107, incubation 0.5 h
[21] = binary system with 0.5% polymer 107, incubation 3 h
[22] = binary system with 0.5% polymer 107, incubation 6 h
[23] = binary system with 0.5% polymer 110, incubation 0.5 h
[24] = binary system with 0.5% polymer 110, incubation 3 h
[25] = binary system with 0.5% polymer 110, incubation 6 h

Compound | Concentration of guest molecule measured after different incubated time ([1]; 0.5 h, pH 6.8 phosphate buffer) | Concentration of guest molecule measured after different incubated time ([1]; 3 h, pH 6.8 phosphate buffer) | Concentration of guest molecule measured after different incubated time ([1]; 6 h, pH 6.8 phosphate buffer) | Times that of the initial medium ([2]; binary: 0.5% 102H) | Concentration of the target in the solution measured after different incubation time [2, 8] | Concentration of the target in the solution measured after different incubation time [2, 9] | Concentration of the target in the solution measured after different incubation time [2, 10] | Concentration of the target in the solution measured after different incubation time [2, 11] | Concentration of the target in the solution measured after different incubation time [2, 12] | Concentration of the target in the solution measured after different incubation time [2, 13] | Concentration of the target in the solution measured after different incubation time [2, 14] | Concentration of the target in the solution measured after different incubation time [2, 15] | Concentration of the target in the solution measured after different incubation time [2, 16] | Concentration of the target in the solution measured after different incubation time [2, 17] | Concentration of the target in the solution measured after different incubation time [2, 18] | Concentration of the target in the solution measured after different incubation time [2, 19] | Concentration of the target in the solution measured after different incubation time [2, 20] | Concentration of the target in the solution measured after different incubation time [2, 21] | Concentration of the target in the solution measured after different incubation time [2, 22] | LogD7.4 or Log P [4] | other results
COc1ccc(-n2nc(C(N)=O)c3c2C(=O)N(c2ccc(N4CCCCC4=O)cc2)CC3)cc1 [Apixaban] | 49.8 µg/mL | 48.7 µg/mL | 48.0 µg/mL | 6.7 times |  |  |  |  |  |  |  |  |  |  |  |  |  |  |  |  | Concentration of guest molecule in solution ([2]; binary: 0.25% 102H): 127.7 µg/mL; Times that of the initial medium ([2]; binary: 0.25% 102H): 2.7 times; Concentration of guest molecule in solution ([2]; binary: 0.25% 103E5): 114.6 µg/mL; Times that of the initial medium ([2]; binary: 0.25% 103E5): 2.4 times; Concentration of guest molecule in solution ([2]; binary: 0.5% 102H): 327.6 µg/mL; Concentration of guest molecule in solution [3, 5]: 366.6 µg/mL; Times that of the initial medium [3, 5]: 7.5 times; Concentration of guest molecule in solution [3, 6]: 300.0 µg/mL; Times that of the initial medium [3, 6]: 6.3 times; Concentration of guest molecule in solution [3, 7]: 397.9 µg/mL; Times that of the initial medium [3, 7]: 8.2 times; Concentration of guest molecule in solution ([3]; ternary: 102H (0.25% where stated) + 301, carrier % not stated, 6 h): 334.8 µg/mL; Concentration of guest molecule in solution ([3]; ternary: 102H (0.25% where stated) + 302, carrier % not stated, 6 h): 312.6 µg/mL; Encapsulation rate for the guest molecule ([3]; ternary: 102H + 313 or 318): ~100%; LogP [4]: LogP 1.83
CCCCC1OC(=O)c2ccccc21 (stereo not drawn) [Butylphthalide] |  |  |  |  | 555.9 µg/mL | 229.5 µg/mL | 230.7 µg/mL | 258.9 µg/mL | 245.3 µg/mL | 244.5 µg/mL | 234.7 µg/mL | 230.8 µg/mL | 233.8 µg/mL | 240.7 µg/mL | 244.6 µg/mL | 241.9 µg/mL | 242.4 µg/mL | 240.0 µg/mL | 243.7 µg/mL | 3.36 | Concentration of guest molecule measured after different incubated time ([1]; 0.5 h, pH 6.5 phosphate buffer): 252.2 µg/mL; Concentration of guest molecule measured after different incubated time ([1]; 3 h, pH 6.5 phosphate buffer): 246.4 µg/mL; Concentration of guest molecule measured after different incubated time ([1]; 6 h, pH 6.5 phosphate buffer): 246.0 µg/mL; Concentration of the target in the solution measured after different incubation time [2, 23]: 240.5 µg/mL; Concentration of the target in the solution measured after different incubation time [2, 24]: 253.9 µg/mL; Concentration of the target in the solution measured after different incubation time [2, 25]: 252.1 µg/mL; Concentration of guest molecule in solution ([3]; ternary: 0.25% 102M + 0.25% 313, 2 h): 480.3 µg/mL; Concentration of guest molecule in solution ([3]; ternary: 0.25% 102M + 0.25% 313, 6 h): 650.6 µg/mL; Concentration of guest molecule in solution ([3]; ternary: 0.25% 102M + 0.25% 313, 10 h): 1026.3 µg/mL; Concentration of guest molecule in solution ([3]; ternary: 0.25% 102M + 0.25% 314, 2 h): 1103.4 µg/mL; Concentration of guest molecule in solution ([3]; ternary: 0.25% 102M + 0.25% 314, 6 h): 406.8 µg/mL; Concentration of guest molecule in solution ([3]; ternary: 0.25% 102M + 0.25% 318, 2 h): 521.5 µg/mL; Concentration of guest molecule in solution ([3]; ternary: 0.25% 102M + 0.25% 318, 6 h): 754.1 µg/mL; Concentration of guest molecule in solution ([3]; ternary: 0.25% 102M + 0.25% 318, 10 h): 1310.2 µg/mL; Concentration of guest molecule in solution ([3]; ternary: 0.25% 102M + 0.25% 319, 2 h): 413.5 µg/mL; Concentration of guest molecule in solution ([3]; ternary: 0.25% 102M + 0.25% 319, 6 h): 643.7 µg/mL; Concentration of guest molecule in solution ([3]; ternary: 0.25% 102M + 0.25% 319, 10 h): 1125.6 µg/mL
CNC(=O)c1ccc(N2C(=S)N(c3ccc(C#N)c(C(F)(F)F)c3)C(=O)C2(C)C)cc1F [Enzalutamide] |  |  |  | 1.7 times | 272.9 µg/mL | 221.8 µg/mL | 193.8 µg/mL | 90.1 µg/mL | 75.5 µg/mL | 72.2 µg/mL | 102.4 µg/mL | 88.4 µg/mL | 84.4 µg/mL | 150.2 µg/mL | 131.1 µg/mL | 128.2 µg/mL | 236.9 µg/mL | 151.4 µg/mL | 137.8 µg/mL | 4.16 | Concentration of guest molecule measured after different incubated time ([1]; 0.5 h, 0.2% SDS in pH 6.8 phosphate buffer): 62.3 µg/mL; Concentration of guest molecule measured after different incubated time ([1]; 3 h, 0.2% SDS in pH 6.8 phosphate buffer): 57.1 µg/mL; Concentration of guest molecule measured after different incubated time ([1]; 6 h, 0.2% SDS in pH 6.8 phosphate buffer): 59.0 µg/mL; Concentration of the target in the solution measured after different incubation time [2, 23]: 53.8 µg/mL; Concentration of the target in the solution measured after different incubation time [2, 24]: 45.8 µg/mL; Concentration of the target in the solution measured after different incubation time [2, 25]: 43.0 µg/mL; Times that of the initial medium ([2]; binary: 0.5% 107): 1.9 times; Concentration of guest molecule in solution ([3]; binary: 0.25% 312, 6 h): 135 µg/mL; Concentration of guest molecule in solution ([3]; binary: 0.25% 318, 6 h): 175 µg/mL; Concentration of guest molecule in solution ([3]; quaternary: 0.25% 202 (102H+107) + 0.25% 312, 6 h): 371 µg/mL; Concentration of guest molecule in solution ([3]; quaternary: 0.25% 202 (102H+107) + 0.25% 313, 6 h): 533 µg/mL; Concentration of guest molecule in solution ([3]; quaternary: 0.25% 202 (102H+107) + 0.25% 318, 6 h): 451 µg/mL; Concentration of guest molecule in solution ([3]; quaternary: 0.25% 202 (102H+107) + 0.25% 321, 6 h): 623 µg/mL
CC1=C(/C=C/C(C)=C/C=C/C(C)=C/CO)C(C)(C)CCC1 [Vitamin A, vitamin A] | 57.2 µg/mL | 51.1 µg/mL | 53.0 µg/mL |  |  |  |  | 80.5 µg/mL | 80.2 µg/mL | 75.7 µg/mL |  |  |  |  |  |  |  |  |  | 4.69 | 
Cc1c(C)c2c(c(C)c1O)CC[C@@](C)(CCC[C@H](C)CCC[C@H](C)CCCC(C)C)O2 [Vitamin E, vitamin E] | 20.9 µg/mL | 17.9 µg/mL | 11.9 µg/mL |  |  |  |  | 28.6 µg/mL | 57.9 µg/mL | 36.4 µg/mL |  |  |  |  |  |  |  |  |  | 10.50 | 

Reference: patent US20250339399A1, “SUPRAMOLECULAR SELF-ASSEMBLY SYSTEM” (Beijing Creatron Institute of Pharmaceutical Research Co., …, priority 2022, published 2025)
